# According to PMC7118115, “Tumor-penetrating peptide for systemic targeting of Tenascin-C” (Scientific Reports, 2020):
# Columns and labels:
# U87-MG = assay: In vivo play-off phage auditioning, U87-MG tumor; parameters: species or system human glioblastoma in athymic nude mice; conditions: phage-displayed peptide; equimolar mix, i.v. 1 × 10^10 pfu/mouse, 2 h circulation, perfusion; Ion-Torrent sequencing; mean, N = 3 mice
# Procedure: (§1) Athymic nude mice (Hsd/Athymic Fox1 nu Harlan) were purchased from Envigo (Netherlands) and maintained under standard housing conditions of the Animal Facility of the Institute of Biomedicine and Translational Medicine, University of Tartu (Tartu, Estonia). For orthotropic GBM tumor models, we used NCH421K, P13, and P3 stem cell-like, WT-GBM cells. The individual GBM cells around 2–3 × 10^5 in 3 μL PBS were intracranially implanted into mice brain 2 mm right and 1 mm anterior to the bregma. U87-MG and PC3 subcutaneous models were induced by injecting 2–9 × 10^6 cells in 100 µl PBS subcutaneously into the right flank of 11–15 week old male and female nude mice. All animal experiments were performed in accordance with the procedures approved by the Committee of Animal Experimentation of Estonian Ministry of Agriculture, permits #42 and #48.
# (§2) In vivo play-off was used for internally controlled and competitive systemic phage homing studies in mice bearing tumor xenografts. Phages displaying the candidate TNC-C binding peptides and control peptides were individually amplified and purified by precipitation with PEG-8000 (Sigma-Aldrich, St. Louis, MO, USA), followed by […] gradient ultracentrifugation and dialysis. The phages were pooled at equimolar representation (Table 1 for details) and injected iv at 1 × 10^10 pfu (in 200 µl PBS) in tumor-bearing mice, circulated for 2 h, followed by anesthesia and intracardial perfusion with DMEM. The tumors and organs were collected in lysogeny broth (LB) medium containing 1% NP40, and the tissues were homogenized using a hand-held homogenizer. Phages in the tissue lysate were amplified in E.coli, purified by precipitation with PEG-8000, and DNA was extracted using a DNA extraction kit (High Pure PCR Template Preparation Kit; Roche, Basel, Switzerland). Next-generation sequencing of phage genomic DNA with Ion Torrent system (Thermo Fisher Scientific, Waltham, MA, USA) was used to evaluate the representation of each peptide-phage in the input mixture, in tumors and control organs. The FASTQ data from Ion Torrent were processed using a custom python script that identified the barcodes, constant flanking residues, and extracted the reads of the correct length.
# Norm. brain = assay: In vivo play-off phage auditioning, normal brain; parameters: species or system athymic nude mice; conditions: phage-displayed peptide; equimolar mix, i.v. 1 × 10^10 pfu/mouse, 2 h circulation, perfusion; Ion-Torrent sequencing; mean, N = 3 mice
# Procedure: as §2
# P13 = assay: In vivo play-off phage auditioning, P13 tumor; parameters: species or system P13 glioblastoma in athymic nude mice; conditions: phage-displayed peptide; equimolar mix, i.v. 1 × 10^10 pfu/mouse, 2 h circulation, perfusion; Ion-Torrent sequencing; mean, N = 3 mice
# Procedure: as §1, §2
# WT-GBM = assay: In vivo play-off phage auditioning, WT-GBM tumor; parameters: species or system murine WT-GBM glioblastoma in athymic nude mice; conditions: phage-displayed peptide; equimolar mix, i.v. 1 × 10^10 pfu/mouse, 2 h circulation, perfusion; Ion-Torrent sequencing; mean, N = 3 mice
# Procedure: as §1, §2
# recombinant TNC-C = assay: Cell-free phage binding to TNC-C; parameters: species or system human; conditions: individual T7 phage clones; Ni-NTA magnetic beads coated with hexahistidine-tagged TNC-C
# Procedure: For biopanning on recombinant human TNC-C, we used NNK-encoded CX7C and X7 peptide T7 phage libraries with diversity ~5 × 10^8. Throughout our screens, the selected phages were amplified following plate amplification protocol. The 1st and 4th rounds of biopanning were performed on TNC-C immobilized on Costar 96-Well ELISA plate (#3590, Corning Life Sciences, Tewksbury, MA, USA). Briefly, the multiwell plates were coated with 20 µg/ml recombinant TNC-C in 100 µl of PBS overnight at 4 °C, followed by blocking with 1% bovine serum albumin (BSA) in PBS overnight at 4 °C. The phage library (5 × 10^8 pfu in 100 µl of PBS-BSA) was incubated overnight at 4 °C, followed by 6 washes with PBS containing 1% BSA and 0.1% Tween-20 (washing buffer) to remove background phages, and by phage rescue and amplification in E. coli strain BLT5403 (Novagen, EMD Biosciences, MA, USA)[8]. The subsequent rounds of selection were performed on Ni-NTA Magnetic Agarose Beads (QIAGEN, Hilden, Germany) coated with His-6X tagged TNC-C (30 µg/10 µl beads) at room temperature for 1 h in 400 µl of PBS. The TNC-C beads were washed 3 times with washing buffer, followed by incubation with phages in (5 × 10^8 pfu in 100 µl in washing buffer) at room temperature for 1 h. The background phages were removed by rinsing 6 times with washing buffer, and the bound phages were eluted with 1 ml of PBS containing 500 mM Imidazole and 0.1% NP40.
# The eluted phages were titered and amplified for a next round of selection. After 5 rounds of selection, peptide-encoding DNA from a set of 48 phage clones was subjected to Sanger sequencing of peptide-encoding phage DNA[18],[22]. For cell-free binding studies with individual phage clones were incubated with Ni-NTA magnetic beads coated with hexahistidine-tagged TNC-C as above. RPARPAR phage binding to NRP-1-coated beads was used as a positive control. Phage clones displaying heptaglycine peptide (GGGGGGG, G7), or insertless phage clones were used as negative controls. […]
# Fig. S13. NRP -1-dependent internalization of PL3 -functionalized AgNPs […]
# Supplementary Materials and Methods
# Cloning, expression , and purification of TNC-C
# Vector Construction. A pF1K (Promega, # FXC00319) derivative plasmid containing full -length cDNA of TNC was used for PCR amplification of cDNA region of TNC-C with Phusion Hot Start II High -Fidelity DNA Polymerase (Thermo Fisher Scientific Inc # F -537L; primer pairs:
# 5′- CTCCTCT […] -3′ and 5′ -
# CAGACA CTCGAG TTATCA TGTAACAATCTC -3′ for domain TNC -C. NdeI and XhoI restriction sites underlined ). The fragments were cloned in the pET28a+ plasmid for TNC -C expression as a n N-terminally His -tagged protein .
# Expression and purification of TNC-C. The pET28a+ TNC-C plasmid was used for transformation of E. coli BL21 Rosetta 2 (DE3) pLysS cells (Novagen, #70956). The protein expression was induced by addition of isopropyl β-D-1-thiogalactopyranoside (IPTG) (Sigma, # I6758) to 0.5 mM final concentration and the bacteria were culture d at 18 °C for 16h . Cells were […]
# collected by centrifugation, resuspended in ice-cold IMAC buffer (25mM Tris-HCl, 400mM NaCl, 25mM imidazole pH 8, containing EDTA-free protease inhibitor cocktail and DNase I) and lysed by sonification (Bandelin Sonopuls HD 2070, Germany). The cleared bacterial lysate was purified using HiTrap IMAC HP column s (GE Healthcare # 17 -0920-05) on ÄKTA purification system (GE Healthcare ), and the eluate was dialyzed against PBS using 3.5 kDa cut - off 3mL Slide-A-Lyzer Dialysis Cassettes (Thermo Scientific #66330). TNC-C concentration was determined by bicinchoninic acid assay (Thermo Scientific #23227) , and the purity of the proteins was assessed by SDS -PAGE. Mass spectrometry and de novo peptide sequencing were used to confirm the size and sequence of the purified proteins . His-tagged NRP-1 b1b2 domain was expressed and purified as described (Teesalu et al., 2009) .
# Single-chain antibodies: The cDNA sequences encoding TNC-C-G11-scFV were retrieved from […]
# P3 SCL = assay: In vivo play-off phage auditioning, P3 SCL tumor; parameters: species or system P3 stem cell-like glioblastoma in athymic nude mice; conditions: phage-displayed peptide; equimolar mix, i.v. 1 × 10^10 pfu/mouse, 2 h circulation, perfusion; Ion-Torrent sequencing; mean, N = 3 mice
# Procedure: as §1, §2
# PC3 = assay: In vivo play-off phage auditioning, PC3 tumor; parameters: species or system prostate carcinoma in athymic nude mice; conditions: phage-displayed peptide; equimolar mix, i.v. 1 × 10^10 pfu/mouse, 2 h circulation, perfusion; Ion-Torrent sequencing; mean, N = 3 mice
# Procedure: as §1, §2
Substance,"Representation of phage in tumors, U87-MG (U87-MG)",Representation of phage in control brain tissue (Norm. brain) (Norm. brain),"Representation of phage in tumors, P13 (P13)","Representation of phage in tumors, WT-GBM (WT-GBM)",TNC-C binding (fold G7 control phage) (recombinant TNC-C),"Representation of phage in tumors, P3 SCL (P3 SCL)","Representation of phage in tumors, PC3 (PC3)"
AGRGRLVRAKLAAALE [Clone-5],0.2 fold G7 control phage,0.0 fold G7 control phage,0.1 fold G7 control phage,23.9 fold G7 control phage,5785 fold G7 control phage,0.4 fold G7 control phage,0.3 fold G7 control phage
AGVGRLRRAKLAAALE [Clone-1],1.0 fold G7 control phage,0.2 fold G7 control phage,0.9 fold G7 control phage,2.3 fold G7 control phage,3259 fold G7 control phage,0.9 fold G7 control phage,1.4 fold G7 control phage
AVRGRLRVAKLAAALE [Clone-3],0.8 fold G7 control phage,0.1 fold G7 control phage,0.6 fold G7 control phage,1.3 fold G7 control phage,–,0.6 fold G7 control phage,1.0 fold G7 control phage
CAGRGRLVRC [Modified clone-5],0.1 fold G7 control phage,0.0 fold G7 control phage,0.4 fold G7 control phage,0.9 fold G7 control phage,–,0.2 fold G7 control phage,0.4 fold G7 control phage
CQRMGVVGAKLAAALE [Clone 36],–,–,–,–,3928 fold G7 control phage,–,–
CRGVLRRAKLAAALE [Clone-2],0.7 fold G7 control phage,0.1 fold G7 control phage,0.4 fold G7 control phage,1.6 fold G7 control phage,5955 fold G7 control phage,0.4 fold G7 control phage,0.9 fold G7 control phage
CSRRGILRAKPAAALE [Clone-4],1.1 fold G7 control phage,0.1 fold G7 control phage,0.8 fold G7 control phage,1.5 fold G7 control phage,4889 fold G7 control phage,0.9 fold G7 control phage,1.2 fold G7 control phage
"GGGGGGG [heptaglycine control phage, reference compound]",1.0 fold G7 control phage,1 fold G7 control phage,1.0 fold G7 control phage,1.0 fold G7 control phage,–,1.0 fold G7 control phage,1.0 fold G7 control phage
GRLTRVR [Clone-46],0.9 fold G7 control phage,0.1 fold G7 control phage,0.5 fold G7 control phage,1.9 fold G7 control phage,115 fold G7 control phage,0.5 fold G7 control phage,0.9 fold G7 control phage
RGRLRRVE [Clone 44],–,–,–,–,886 fold G7 control phage,–,–
RGRLVRA [Clone-45],0.8 fold G7 control phage,0.1 fold G7 control phage,0.4 fold G7 control phage,3 fold G7 control phage,737 fold G7 control phage,0.3 fold G7 control phage,1.8 fold G7 control phage
RGRLVRAK [Modified clone-5],0.5 fold G7 control phage,0.2 fold G7 control phage,0.1 fold G7 control phage,23.8 fold G7 control phage,–,0.3 fold G7 control phage,3.0 fold G7 control phage
RRLVRVA [Clone-35],0.6 fold G7 control phage,0.1 fold G7 control phage,0.4 fold G7 control phage,1.4 fold G7 control phage,1223 fold G7 control phage,0.3 fold G7 control phage,0.9 fold G7 control phage
